Among the data in US12662478B2, “ATF6 modulators and uses thereof” (Altos Labs, Inc., priority 2019, dated 2026) are activity and activation values, retold here.

Where only a bound is given, the exact number is not on record here.

For experiment [1], the target named is T1, ATF6 (Homo sapiens, UniProt P18850).
T1 construct: endogenous in cells; host or cells: U2-OS (ATCC HTB-96) stably transduced with the Cignal Lenti ATF6 luc reporter (Qiagen #CLS-6031L)
T1 sequence (P18850 1-670): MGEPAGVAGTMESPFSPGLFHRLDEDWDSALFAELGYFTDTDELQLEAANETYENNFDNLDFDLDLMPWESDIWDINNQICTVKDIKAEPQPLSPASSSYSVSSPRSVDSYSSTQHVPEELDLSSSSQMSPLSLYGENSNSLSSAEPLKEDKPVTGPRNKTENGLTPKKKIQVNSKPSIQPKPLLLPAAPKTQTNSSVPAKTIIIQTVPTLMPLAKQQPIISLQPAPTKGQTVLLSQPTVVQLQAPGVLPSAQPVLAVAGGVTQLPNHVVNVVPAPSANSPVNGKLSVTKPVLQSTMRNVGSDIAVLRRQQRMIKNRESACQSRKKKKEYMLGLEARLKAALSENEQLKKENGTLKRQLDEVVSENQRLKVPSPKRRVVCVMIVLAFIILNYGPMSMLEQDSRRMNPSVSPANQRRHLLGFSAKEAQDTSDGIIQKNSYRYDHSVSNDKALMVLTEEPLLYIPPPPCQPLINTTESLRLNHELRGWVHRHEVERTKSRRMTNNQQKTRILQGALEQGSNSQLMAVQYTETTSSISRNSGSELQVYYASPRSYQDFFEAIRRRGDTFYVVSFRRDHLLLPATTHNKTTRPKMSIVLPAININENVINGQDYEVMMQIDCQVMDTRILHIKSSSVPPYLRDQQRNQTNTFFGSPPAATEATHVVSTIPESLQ
Put plainly: ERSE ATF6-luciferase assay in presence of Tg-induced ER stress (U2-OS ATF6 TRE-luciferase reporter cells). It counts as cell-based. Particulars: U2OS, 8 h, in presence of ER stress (thapsigargin), Tg only = 100%, Table 2-3; for activity at 1 µM: 1 μM test compound; for activity at 10 µM: 10 μM test compound. In a few lines:
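Stable U2-OS line with lentiviral firefly luciferase driven by an mCMV promoter plus tandem ATF6 TREs. Cells were pre-treated 30 min with 1 or 10 µM compound, then thapsigargin added as 0.2 µM solution with compound maintained, 0.3% DMSO final, for 8 h. Luminescence in triplicate; vehicle subtracted, Tg alone set as 100%.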
For orientation: In a reporter assay the amount or activity of a reporter protein is the signal.

The target of experiment [2] is T1, ATF6. Put plainly: ERSE ATF6-luciferase assay in absence of ER stress (U2-OS ATF6 TRE-luciferase reporter cells). The class given is cell-based. The note with it: U2OS, 8 h, in absence of ER stress (no Tg), normalized to maximal activation with Tg; for activation at 1 µM: 1 μM test compound, Table 3-3, read-out: ATF6 activity @ 1 μM-No Tg [%]; for activation at 10 µM: 10 μM test compound, Table 3-3, read-out: ATF6 activity @ 10 μM - No Tg [%]. The procedure: To understand how exemplary compounds of the invention modulate the activity of ATF6 in absence or presence of endoplasmic reticulum (ER) stress, a Human bone osteosarcoma (U2-OS)-based TRE-luciferase reporter stable cell line was generated to determine the modulation of transcription of ATF6 target genes.
U2-OS cells were obtained from the American Type Culture Collection (ATCC HTB-96, ATCC Manassas, VA) and were cultured with growing medium containing Dulbecco's Modified Eagle's Medium (DMEM) (Cat. No.: SH30023.02, HyClone) supplemented with fetal bovine serum (FBS) 10% (Cat. No.: 16000044, Gibco) and 1% penicillin-streptomycin antibiotic cocktail (Cat. No.: SV30010, Hyclone).
Cignal Lenti ATF6 luc reporter (Qiagen #CLS-6031L) was used to produce a stable cell line in U2-OS cells (U2-OS ATF6 TRE-luciferase reporter). The lenti ATF6 reporter is a preparation of replication incompetent, VSV-g pseudotyped lentivirus particles expressing the firefly luciferase gene under the control of a minimal (m)CMV promoter and tandem repeats of the ATF6 transcriptional response element (TRE). The number of response elements as well as the intervening sequence between response elements has been experimentally optimized to maximize the signal to noise ratio.
Exemplary compounds of the invention and reference compounds were prepared from powder as 10 mM stock solutions in dimethyl sulfoxide (DMSO; Cat. No. #D2650, Sigma Aldrich) and stored at −80° C. in presence of N2 neutral atmosphere.
For the primary screening, 40,000 U2-OS ATF6 TRE-luciferase reporter cells were plated in poly-D-lysine (Cat. No.: P2636, Sigma) pre-coated white 96-well plates (Thermo Scientific Nunc #136101) with 100 μL of growing medium. Cells were incubated in humidified chambers for 24 hr.
For testing exemplary compounds in absence of ER-stress, cells were treated for 8 hr with 100 μL growing medium containing either vehicle (DMSO), 1 or 10 μM test compound or 0.1 μM Tg. The final concentration of DMSO in each well was kept at 0.3%. Plates were incubated in humidified chambers.
After 8 hr of incubation, plates were cooled down to room temperature for 10 min prior to luciferase assays. Luciferase reactions were performed as above. Luminescence was read by integration of 1 s with a gain of 110 in a Synergy 4 Microplate reader. All measurements were carried out in triplicate.
The average activity determined from the wells containing vehicle only (DMSO, 0% of ATF6 activity) was used as blank and subtracted from the rest of measurements. The percentage of modulation of exemplary compound was calculated by normalizing values to potential maximal activation with Tg.
ATF6 activities of exemplary compounds at 1 and 10 μM in absence of Tg-induced ER stress in the U2-OS ATF6 TRE-luciferase reporter cells were determined and are shown in Table 3-2, and Table 3-3.

Consider `O=C(Nc1cnn(C2CCCC2)c1)c1cc(-c2ccco2)on1` [Compound 3-1, N-(1-cyclopentyl-1H-pyrazol-4-yl)-5-(furan-2-yl)isoxazole-3-carboxamide], for which, at ATF6 [1], the activity at 1 µM was over 150% and the activity at 10 µM is over 150%. Besides, at ATF6 [2], the activation at 1 µM was in the range of 0 to 25% and the activation at 10 µM was 0 to 25%.

`O=C(Nc1cnn(CC2CCCC2)c1)c1cc(-c2ccco2)on1` [Compound 3-2, N-(1-(cyclopentylmethyl)-1H-pyrazol-4-yl)-5-(furan-2-yl)isoxazole-3-carboxamide]: on ATF6 [1], the activity at 1 µM was over 150% and the activity at 10 µM is over 150%. At ATF6 [2], the activation at 1 µM fell in the range of 0 to 25% and the activation at 10 µM was 0 to 25%.
